Measured values from patent publication US20100152152A1, “Therapeutic Use of Nefopam” (priority 2005, published 2010).
Structures can show the parent of a compound that is named as a salt. Marks after values point to notes of the source that are not given here.

Experiments:
[1] = conventional release preparations; cited from earlier work
Mice = experiment: Marble Burying Test (anxiolytic/tranquillizing activity); format: in vivo; details: 30 minutes before the test, 30 minute test
Method: Nefopam and (+)-nefopam were evaluated in the Marble Burying Test, a model which detects anxiolytic/tranquillizing activity. This is a general model for affective disorders.
The method follows that described by Broekkamp et al. (1986 Eur. J. Pharmacol., 126, 223-229. Mice exposed to novel objects (marbles) will bury them in the sawdust floor covering. Anxiolytics decrease the number of marbles buried at non-sedative doses.
Mice are individually placed in transparent plastic cages (33×21×18 cm) with 5 cm of sawdust on the floor and 25 marbles grouped in the centre of each cage. Each test cage is covered with an inverted plastic covering. Each test cage, together with the marbles, is impregnated with mouse odor beforehand, by leaving 10 mice in the cage for 15 minutes. These mice then play no further role in the experiment. The number of marbles covered by sawdust (⅔ or more) is counted at the end of a 30 minute test.
All compounds were administered i.p. 30 minutes before the test, and compared with a vehicle control group. Clobazam (8 mg/kg i.p.), administered under the same experimental conditions, was used as reference substance.

[2] = system: dopamine, norepinephrine and serotonin uptake; details: in vitro and in vivo; Fasmer et al., 1987; Rosland and Hole, 1990; Mather at al., 2001; cited from earlier work

| Compound | elimination half-life [1] | Number of marbles buried (% change from ctrl) (Mice; 10 mg/kg ip) | Number of marbles buried (% change from ctrl) (Mice; 20 mg/kg ip) | Number of marbles buried (% change from ctrl) (Mice; 40 mg/kg ip) | order of potency (analgesic and dopamine, norepinephrine and serotonin uptake inhibitory properties) [2] | Number of marbles buried (% change from ctrl) (Mice; 32 mg/kg ip) |
| --- | --- | --- | --- | --- | --- | --- |
| CN1CCOC(c2ccccc2)c2ccccc2C1 (racemic) [Nefopam, 5-methyl-1-phenyl-3,4,5,6-tetrahydro-1H-2,5-benzoxazocine hydrochloride] | four | −66* % change from ctrl | −98* % change from ctrl | −100* % change from ctrl | – | – |
| CN1CCO[C@@H](c2ccccc2)c2ccccc2C1 [(+)-nefopam] | – | −56* % change from ctrl | −99* % change from ctrl | −100* % change from ctrl | (+)-nefopam>(±)-nefopam>(−)-nefopam | – |
| CN1C(=O)CC(=O)N(c2ccccc2)c2cc(Cl)ccc21 [Clobazam] | – | – | – | – | – | −75* % change from ctrl |
